Experimental data reported in patent publication US12570642B2, “GLP-IR modulating compounds” (Gilead Sciences, Inc., priority 2021, dated 2026).

These compounds were tested against GLP-1R (Homo sapiens, UniProt P43220) (assay: GLP-1R Activation - cAMP Assay). Settings: cAMP increase in CHO cells stably expressing GLP-1R; each compound run on one of the two cAMP assays (Assay 1 or Assay 2, not specified).
Sequence of GLP-1R (P43220 24-463): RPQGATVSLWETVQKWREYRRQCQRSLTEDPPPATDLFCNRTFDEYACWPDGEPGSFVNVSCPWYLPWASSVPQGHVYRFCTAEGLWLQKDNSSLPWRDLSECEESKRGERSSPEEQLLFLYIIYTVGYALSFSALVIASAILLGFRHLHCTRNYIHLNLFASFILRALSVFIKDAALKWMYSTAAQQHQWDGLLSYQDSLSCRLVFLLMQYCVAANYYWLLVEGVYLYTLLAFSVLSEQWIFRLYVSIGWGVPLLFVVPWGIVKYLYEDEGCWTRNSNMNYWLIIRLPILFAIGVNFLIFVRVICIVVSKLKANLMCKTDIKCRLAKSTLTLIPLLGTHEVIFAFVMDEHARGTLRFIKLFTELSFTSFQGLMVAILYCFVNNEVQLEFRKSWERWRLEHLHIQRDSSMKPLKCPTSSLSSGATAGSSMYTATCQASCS
Assay type: cell-based
Outline: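 cAMP rise read by HTRF after 30 min agonist exposure (10-point titration, 37 °C) in HBSS/20 mM Hepes/0.1% BSA, following 1 h pre-incubation. Cells: stable GLP-1R CHO line, 1,000/well, seeded overnight. Sigmoidal fit of response vs log concentration gives EC50.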
Work on COCCn1c(Cc2cc(F)c(-c3cccc(OCc4ccc(C#N)cc4F)n3)cc2Cl)nc2c(F)cc(C(=O)O)cc21 [Example 351, 2-(2-chloro-4-(6-((4-cyano-2-fluorobenzyl)oxy)pyridin-2-yl)-5-fluorobenzyl)-4-fluoro-1-(2-methoxyethyl)-1H-benzo[d]imidazole-6-carboxylic acid] yielded an EC50 of 0.074 nM. CO[C@H](C)Cn1c(Cc2cc(F)c(-c3cccc(OCc4ccc(-n5ccnn5)nc4)n3)cc2F)nc2c(F)cc(C(=O)O)cc21 [Example 352, (R)-2-(4-(6-((6-(1H-1,2,3-triazol-1-yl)pyridin-3-yl)methoxy)pyridin-2-yl)-2,5-difluorobenzyl)-4-fluoro-1-(2-methoxypropyl)-1H-benzo[d]imidazole-6-carboxylic acid] showed an EC50 of 0.535 nM. For CO[C@H](C)Cn1c(Cc2cc(F)c(-c3cccc(OCc4cc(F)c(Cl)cc4F)n3)cc2F)nc2c(F)cc(C(=O)O)cc21 [Example 353, (R)-2-(4-(6-((4-chloro-2,5-difluorobenzyl)oxy)pyridin-2-yl)-2,5-difluorobenzyl)-4-fluoro-1-(2-methoxypropyl)-1H-benzo[d]imidazole-6-carboxylic acid], the EC50 was 1.18 nM. CO[C@H](C)Cn1c(Cc2cc(F)c(-c3cccc(OCc4ccc(-n5ccnn5)cc4F)n3)cc2F)nc2c(F)cc(C(=O)O)cc21 [Example 354, (R)-2-(2,5-difluoro-4-(6-((2-fluoro-4-(1H-1,2,3-triazol-1-yl)benzyl)oxy)pyridin-2-yl)benzyl)-4-fluoro-1-(2-methoxypropyl)-1H-benzo[d]imidazole-6-carboxylic acid] showed an EC50 of 0.528 nM. Work on CO[C@H](C)Cn1c(Cc2cc(F)c(-c3cccc(OCc4ccc(C#N)cc4F)n3)cc2F)nc2c(F)cc(C(=O)O)cc21 [Example 355, (R)-2-(4-(6-((4-cyano-2-fluorobenzyl)oxy)pyridin-2-yl)-2,5-difluorobenzyl)-4-fluoro-1-(2-methoxypropyl)-1H-benzo[d]imidazole-6-carboxylic acid] yielded an EC50 of 1.21 nM. In the case of CC1(C)COC[C@H]1n1c(Cc2cc(F)c(-c3cccc(OCc4ccc(C(F)F)cc4)n3)cc2F)nc2ccc(C(=O)O)cc21 [Example 357, (S)-2-(4-(6-((4-(difluoromethyl)benzyl)oxy)pyridin-2-yl)-2,5-difluorobenzyl)-1-(4,4-dimethyltetrahydrofuran-3-yl)-1H-benzo[d]imidazole-6-carboxylic acid], the EC50 is reported as 0.171 nM. CC1(C)COC[C@H]1n1c(Cc2cc(F)c(-c3cccc(OCc4ccc(C(F)(F)F)cc4)n3)cc2F)nc2ccc(C(=O)O)cc21 [Example 358, (S)-2-(2,5-difluoro-4-(6-((4-(trifluoromethyl)benzyl)oxy)pyridin-2-yl)benzyl)-1-(4,4-dimethyltetrahydrofuran-3-yl)-1H-benzo[d]imidazole-6-carboxylic acid] gave an EC50 of 0.124 nM. For CC1(C)COC[C@H]1n1c(Cc2cc(F)c(-c3cccc(OCc4ccc(F)cc4)n3)cc2F)nc2ccc(C(=O)O)cc21 [Example 360, (S)-2-(2,5-difluoro-4-(6-((4-fluorobenzyl)oxy)pyridin-2-yl)benzyl)-1-(4,4-dimethyltetrahydrofuran-3-yl)-1H-benzo[d]imidazole-6-carboxylic acid], the EC50 was 0.079 nM. Cc1ccc(COc2cccc(-c3cc(F)c(Cc4nc5ccc(C(=O)O)cc5n4[C@@H]4COCC4(C)C)cc3F)n2)cc1 [Example 361, (S)-2-(2,5-difluoro-4-(6-((4-methylbenzyl)oxy)pyridin-2-yl)benzyl)-1-(4,4-dimethyltetrahydrofuran-3-yl)-1H-benzo[d]imidazole-6-carboxylic acid] was tested, and the EC50 was 0.131 nM. CC1(C)COC[C@H]1n1c(Cc2c(F)cc(-c3cccc(OCc4ccc(C#N)cc4)n3)cc2F)nc2ccc(C(=O)O)cc21 [Example 362, (S)-2-(4-(6-((4-cyanobenzyl)oxy)pyridin-2-yl)-2,6-difluorobenzyl)-1-(4,4-dimethyltetrahydrofuran-3-yl)-1H-benzo[d]imidazole-6-carboxylic acid] gave an EC50 of 0.266 nM. For CC1(C)COC[C@H]1n1c(Cc2cc(F)c(-c3cccc(OCc4ccccc4)n3)cc2F)nc2ccc(C(=O)O)cc21 [Example 363, (S)-2-(4-(6-(benzyloxy)pyridin-2-yl)-2,5-difluorobenzyl)-1-(4,4-dimethyltetrahydrofuran-3-yl)-1H-benzo[d]imidazole-6-carboxylic acid], the EC50 was 0.369 nM. In the case of CC1(C)COC[C@H]1n1c(Cc2ccc(-c3nc(OCc4ccc(C#N)cc4F)ccc3F)cc2F)nc2ccc(C(=O)O)cc21 [Example 364, (S)-2-(4-(6-((4-cyano-2-fluorobenzyl)oxy)-3-fluoropyridin-2-yl)-2-fluorobenzyl)-1-(4,4-dimethyltetrahydrofuran-3-yl)-1H-benzo[d]imidazole-6-carboxylic acid], the EC50 is reported as 0.158 nM. CC1(C)COC[C@H]1n1c(Cc2cc(F)c(-c3nc(OCc4ccc(C#N)cc4F)ccc3F)cc2F)nc2c(F)cc(C(=O)O)cc21 [Example 365, (S)-2-(4-(6-((4-cyano-2-fluorobenzyl)oxy)-3-fluoropyridin-2-yl)-2,5-difluorobenzyl)-1-(4,4-dimethyltetrahydrofuran-3-yl)-4-fluoro-1H-benzo[d]imidazole-6-carboxylic acid] showed an EC50 of 0.124 nM. COCCn1c(Cc2cc(F)c(-c3ccc(F)c(OCc4ccc(C#N)cc4)n3)cc2F)nc2ccc(C(=O)O)c(F)c21 [Example 366, 2-(4-(6-((4-cyanobenzyl)oxy)-5-fluoropyridin-2-yl)-2,5-difluorobenzyl)-7-fluoro-1-(2-methoxyethyl)-1H-benzo[d]imidazole-6-carboxylic acid] gave an EC50 of 1.17 nM. CC1(C)COC[C@H]1n1c(Cc2cc(F)c(-c3cccc(OCc4ccc(Cl)cc4)n3)cc2F)nc2c(F)cc(C(=O)O)cc21 [Example 367, (S)-2-(4-(6-((4-chlorobenzyl)oxy)pyridin-2-yl)-2,5-difluorobenzyl)-1-(4,4-dimethyltetrahydrofuran-3-yl)-4-fluoro-1H-benzo[d]imidazole-6-carboxylic acid] showed an EC50 of 0.274 nM. CO[C@H](C)Cn1c(Cc2cc(F)c(-c3ccc(F)c(OCc4ccc(C#N)cc4F)n3)cc2F)nc2c(F)cc(C(=O)O)cc21 [Example 368, (R)-2-(4-(6-((4-cyano-2-fluorobenzyl)oxy)-5-fluoropyridin-2-yl)-2,5-difluorobenzyl)-4-fluoro-1-(2-methoxypropyl)-1H-benzo[d]imidazole-6-carboxylic acid] gave an EC50 of 0.562 nM. In the case of CC1(C)COC[C@H]1n1c(Cc2ccc(-c3ccc(F)c(OCc4ccc(C#N)cc4F)n3)c(F)c2)nc2ccc(C(=O)O)cc21 [Example 369, (S)-2-(4-(6-((4-cyano-2-fluorobenzyl)oxy)-5-fluoropyridin-2-yl)-3-fluorobenzyl)-1-(4,4-dimethyltetrahydrofuran-3-yl)-1H-benzo[d]imidazole-6-carboxylic acid], the EC50 is reported as 0.364 nM. With CC1(C)COC[C@H]1n1c(Cc2ccc(-c3ccc(F)c(OCc4ccc(C#N)cc4)n3)cc2F)nc2ccc(C(=O)O)cc21 [Example 370, (S)-2-(4-(6-((4-cyanobenzyl)oxy)-5-fluoropyridin-2-yl)-2-fluorobenzyl)-1-(4,4-dimethyltetrahydrofuran-3-yl)-1H-benzo[d]imidazole-6-carboxylic acid] the EC50 was 0.042 nM. Work on CC1(C)COC[C@H]1n1c(Cc2ccc(-c3cccc(OCc4ccc(Cl)cc4)n3)cc2F)nc2ccc(C(=O)O)cc21 [Example 371, (S)-2-(4-(6-((4-chlorobenzyl)oxy)pyridin-2-yl)-2-fluorobenzyl)-1-(4,4-dimethyltetrahydrofuran-3-yl)-1H-benzo[d]imidazole-6-carboxylic acid] yielded an EC50 of 0.127 nM. Compound CC1(C)COC[C@H]1n1c(Cc2ccc(-c3cccc(OCc4ccc(C#N)cc4)n3)cc2F)nc2c(F)cc(C(=O)O)cc21 [Example 372, (S)-2-(4-(6-((4-cyanobenzyl)oxy)pyridin-2-yl)-2-fluorobenzyl)-1-(4,4-dimethyltetrahydrofuran-3-yl)-4-fluoro-1H-benzo[d]imidazole-6-carboxylic acid] has an EC50 of 0.163 nM. CC1(C)COC[C@H]1n1c(Cc2ccc(-c3cccc(OCc4ccc(C#N)cc4)n3)cc2F)nc2ccc(C(=O)O)cc21 [Example 373, (S)-2-(4-(6-((4-cyanobenzyl)oxy)pyridin-2-yl)-2-fluorobenzyl)-1-(4,4-dimethyltetrahydrofuran-3-yl)-1H-benzo[d]imidazole-6-carboxylic acid] gave an EC50 of 0.294 nM. For COCCn1c(Cc2cc(F)c(-c3cccc(OCc4ccc(-n5ccnn5)cc4F)n3)cc2F)nc2ccc(C(=O)O)c(F)c21 [Example 374, 2-(2,5-difluoro-4-(6-((2-fluoro-4-(1H-1,2,3-triazol-1-yl)benzyl)oxy)pyridin-2-yl)benzyl)-7-fluoro-1-(2-methoxyethyl)-1H-benzo[d]imidazole-6-carboxylic acid], the EC50 was 0.571 nM. In the case of COCCn1c(Cc2cc(F)c(-c3cccc(OCc4ccc(C#N)cc4)n3)cc2F)nc2ccc(C(=O)O)c(F)c21 [Example 375, 2-(4-(6-((4-cyanobenzyl)oxy)pyridin-2-yl)-2,5-difluorobenzyl)-7-fluoro-1-(2-methoxyethyl)-1H-benzo[d]imidazole-6-carboxylic acid], the EC50 is reported as 0.272 nM. For CC1(C)COC[C@H]1n1c(Cc2cc(F)c(-c3cccc(OCc4ccc(C#N)cc4)n3)cc2F)nc2c(F)cc(C(=O)O)cc21 [Example 376, (S)-2-(4-(6-((4-cyanobenzyl)oxy)pyridin-2-yl)-2,5-difluorobenzyl)-1-(4,4-dimethyltetrahydrofuran-3-yl)-4-fluoro-1H-benzo[d]imidazole-6-carboxylic acid], the EC50 was 0.056 nM. Compound COCCn1c(Cc2c(F)cc(-c3cccc(OCc4ccc(Cl)cc4)n3)c(F)c2F)nc2c(F)cc(C(=O)O)cc21 [Example 377, 2-(4-(6-((4-chlorobenzyl)oxy)pyridin-2-yl)-2,3,6-trifluorobenzyl)-4-fluoro-1-(2-methoxyethyl)-1H-benzo[d]imidazole-6-carboxylic acid] has an EC50 of 0.188 nM.
